Test results reported in ChEMBL document CHEMBL1131892, “Synthesis and biological activities of NB-506 analogues: Effects of the positions of two hydroxyl groups at the indole rings” (Bioorg Med Chem Lett, 1999).

Assays:
DNA topoisomerase 1 = target: T1, DNA topoisomerase 1 (Homo sapiens, UniProt P11387); experiment: In vitro inhibition of Topoisomerase I-mediated DNA cleavage using supercoiled pBR322 plasmid DNA.
T1 sequence (P11387 whole entry): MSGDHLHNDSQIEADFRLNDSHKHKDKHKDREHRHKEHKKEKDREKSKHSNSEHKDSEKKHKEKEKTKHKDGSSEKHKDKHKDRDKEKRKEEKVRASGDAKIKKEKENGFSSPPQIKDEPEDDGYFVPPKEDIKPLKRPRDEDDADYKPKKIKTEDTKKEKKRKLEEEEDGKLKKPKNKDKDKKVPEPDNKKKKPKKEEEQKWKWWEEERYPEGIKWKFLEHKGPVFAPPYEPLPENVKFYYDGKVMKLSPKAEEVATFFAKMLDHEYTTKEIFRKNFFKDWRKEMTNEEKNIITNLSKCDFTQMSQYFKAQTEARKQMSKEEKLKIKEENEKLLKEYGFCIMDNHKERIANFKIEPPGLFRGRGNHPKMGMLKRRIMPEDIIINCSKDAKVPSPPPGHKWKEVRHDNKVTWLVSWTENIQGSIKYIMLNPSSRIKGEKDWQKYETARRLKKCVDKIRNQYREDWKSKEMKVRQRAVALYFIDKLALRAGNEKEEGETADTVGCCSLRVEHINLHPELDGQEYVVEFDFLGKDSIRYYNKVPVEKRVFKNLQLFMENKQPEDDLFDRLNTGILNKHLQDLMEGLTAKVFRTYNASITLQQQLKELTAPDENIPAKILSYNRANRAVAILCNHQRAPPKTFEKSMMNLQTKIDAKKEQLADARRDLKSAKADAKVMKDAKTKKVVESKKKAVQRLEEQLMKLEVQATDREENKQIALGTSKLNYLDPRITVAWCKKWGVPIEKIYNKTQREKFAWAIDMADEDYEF

DLD-1 = experiment: In vitro cytotoxicity against DLD-1 (human colon cancer) cells.; type: functional, cell-based
P388 [1] = experiment: In vitro cytotoxicity against p388 (murine leukemia) cells.; type: functional, cell-based; details: Mus musculus
P388 [2] = experiment: Inhibition of protein-DNA complex in P388 (murine leukemia) cells.; type: functional, Mus musculus
MKN-45 = experiment: In vitro cytotoxicity against MKN-45 (human stomach cancer) cells.; type: functional, cell-based
Mus musculus = experiment: Tested for anticancer effect on MKN-45 human stomach cancer cells implanted subcutaneously into flanks of nude mice.; type: functional
[3] = Compound was tested for anticancer effect on cancer cells implanted subcutaneously into flanks of nude mice and safety margin was determined (LD10/GID75); type: functional, Cancer cell lines

`O=C1c2c(c3c4ccccc4n(C4OC(CO)C(O)C(O)C4O)c3c3[nH]c4c(O)cccc4c23)C(=O)N1NC(CO)CO` (stereo not given) showed an EC50 (DNA topoisomerase 1) of 210 nM, an IC50 (DLD-1) of 10000 nM and an IC50 (P388 [1]) of 140 nM. The EC200 (P388 [2]) was over 10 µM and the IC50 (MKN-45) was 1600 nM.
Work on `O=C1c2c(c3c4cccc(O)c4n(C4OC(CO)C(O)C(O)C4O)c3c3[nH]c4ccc(O)cc4c23)C(=O)N1NC(CO)CO` (stereo not given) yielded an EC50 (DNA topoisomerase 1) of 510 nM, a GID75 (Mus musculus) of 2500 mg m**-2 and an LD10 (Mus musculus) of 1900 mg m**-2. For the same molecule, the Ratio [3] was 0.8, the IC50 (DLD-1) was 220 nM and the IC50 (P388 [1]) was 32 nM. The EC200 (P388 [2]) was 0.55 µM and the IC50 (MKN-45) was 250 nM.
In the case of `O=C1c2c(c3c4ccc(O)cc4n(C4OC(CO)C(O)C(O)C4O)c3c3[nH]c4c(O)cccc4c23)C(=O)N1NC(CO)CO` (stereo not given), the EC50 (DNA topoisomerase 1) is reported as 55 nM, the GID75 (Mus musculus) is reported as 320 mg m**-2 and the LD10 (Mus musculus) is reported as 350 mg m**-2. It also gave a Ratio [3] of 1.1, an IC50 (DLD-1) of 200 nM and an IC50 (P388 [1]) of 10 nM. It also gave an EC200 (P388 [2]) of 0.8 µM and an IC50 (MKN-45) of 65 nM.
`O=C1c2c(c3c4cccc(O)c4n(C4OC(CO)C(O)C(O)C4O)c3c3[nH]c4cc(O)ccc4c23)C(=O)N1NC(CO)CO` (stereo not given) gave an EC50 (DNA topoisomerase 1) of 160 nM, a GID75 (Mus musculus) of 220 mg m**-2 and an LD10 (Mus musculus) of 370 mg m**-2. It also gave a Ratio [3] of 1.7, an IC50 (DLD-1) of 89 nM and an IC50 (P388 [1]) of 5.4 nM. For the same molecule, the EC200 (P388 [2]) was 0.4 µM and the IC50 (MKN-45) was 87 nM.
For `O=C1c2c(c3c4ccccc4n(C4OC(CO)C(O)C(O)C4O)c3c3[nH]c4cc(O)ccc4c23)C(=O)N1NC(CO)CO` (stereo not given), the EC50 (DNA topoisomerase 1) was 650 nM, the GID75 (Mus musculus) was 820 mg m**-2 and the LD10 (Mus musculus) was 2700 mg m**-2. The Ratio [3] was 3.3, the IC50 (DLD-1) was 2000 nM and the IC50 (P388 [1]) was 13 nM. It also gave an EC200 (P388 [2]) of 1.2 µM and an IC50 (MKN-45) of 110 nM.
With `O=C1c2c(c3c4cc(O)ccc4n(C4OC(CO)C(O)C(O)C4O)c3c3[nH]c4cc(O)ccc4c23)C(=O)N1NC(CO)CO` (stereo not given) the EC50 (DNA topoisomerase 1) was 55 nM, the GID75 (Mus musculus) was 710 mg m**-2 and the LD10 (Mus musculus) was 1000 mg m**-2. The Ratio [3] was 1.4, the IC50 (DLD-1) was 340 nM and the IC50 (P388 [1]) was 3.5 nM. For the same molecule, the EC200 (P388 [2]) was 0.65 µM and the IC50 (MKN-45) was 120 nM.
With `O=C1c2c(c3c4ccc(O)cc4n(C4OC(CO)C(O)C(O)C4O)c3c3[nH]c4c(O)cc(O)cc4c23)C(=O)N1NC(CO)CO` (stereo not given) the EC50 (DNA topoisomerase 1) was 90 nM, the IC50 (DLD-1) was over 30000 nM and the IC50 (P388 [1]) was 15000 nM. For the same molecule, the EC200 (P388 [2]) was over 10 µM and the IC50 (MKN-45) was over 30000 nM.
Molecule `O=C1c2c(c3c4ccc(O)cc4n(C4OC(CO)C(O)C(O)C4O)c3c3[nH]c4cc(O)ccc4c23)C(=O)N1NC(CO)CO` (stereo not given) has an EC50 (DNA topoisomerase 1) of 51 nM, a GID75 (Mus musculus) of 45 mg m**-2 and an LD10 (Mus musculus) of over 1600 mg m**-2. The Ratio [3] was over 36, the IC50 (DLD-1) was 120 nM and the IC50 (P388 [1]) was 1.5 nM. For the same molecule, the EC200 (P388 [2]) was 0.1 µM and the IC50 (MKN-45) was 4.8 nM.
`O=C1c2c(c3c4ccc(O)cc4n(C4OC(CO)C(O)C(O)C4O)c3c3[nH]c4ccccc4c23)C(=O)N1NC(CO)CO` (stereo not given) showed an EC50 (DNA topoisomerase 1) of 230 nM, a GID75 (Mus musculus) of 800 mg m**-2 and an LD10 (Mus musculus) of 1000 mg m**-2. It also gave a Ratio [3] of 1.3, an IC50 (DLD-1) of 1000 nM and an IC50 (P388 [1]) of 3.1 nM. For the same molecule, the EC200 (P388 [2]) was 0.4 µM and the IC50 (MKN-45) was 25 nM.
In the case of `O=C1c2c(c3c4cccc(O)c4n(C4OC(CO)C(O)C(O)C4O)c3c3[nH]c4ccccc4c23)C(=O)N1NC(CO)CO` (stereo not given), the EC50 (DNA topoisomerase 1) is reported as 650 nM, the IC50 (DLD-1) is reported as 2600 nM and the IC50 (P388 [1]) is reported as 22 nM. The EC200 (P388 [2]) was 2 µM and the IC50 (MKN-45) was 640 nM.
With `O=C1c2c(c3c4cc(O)ccc4n(C4OC(CO)C(O)C(O)C4O)c3c3[nH]c4ccc(O)cc4c23)C(=O)N1NC(CO)CO` (stereo not given) the EC50 (DNA topoisomerase 1) was 210 nM, the GID75 (Mus musculus) was 300 mg m**-2 and the LD10 (Mus musculus) was 380 mg m**-2. It also gave a Ratio [3] of 1.3, an IC50 (DLD-1) of 11000 nM and an IC50 (P388 [1]) of 6.8 nM. The EC200 (P388 [2]) was 0.6 µM and the IC50 (MKN-45) was 250 nM.
`O=C1c2c(c3c4ccccc4n(C4OC(CO)C(O)C(O)C4O)c3c3[nH]c4cccc(O)c4c23)C(=O)N1NC(CO)CO` (stereo not given) showed an EC50 (DNA topoisomerase 1) of 570 nM, an IC50 (DLD-1) of over 30000 nM and an IC50 (P388 [1]) of 700 nM. For the same molecule, the EC200 (P388 [2]) was over 10 µM and the IC50 (MKN-45) was 2100 nM.
In the case of `O=C1c2c(c3c4ccc(O)cc4n(C4OC(CO)C(O)C(O)C4O)c3c3[nH]c4ccc(O)cc4c23)C(=O)N1NC(CO)CO` (stereo not given), the EC50 (DNA topoisomerase 1) is reported as 37 nM, the GID75 (Mus musculus) is reported as 290 mg m**-2 and the LD10 (Mus musculus) is reported as 1000 mg m**-2. For the same molecule, the Ratio [3] was 3.4, the IC50 (DLD-1) was 79 nM and the IC50 (P388 [1]) was 5.2 nM. It also gave an EC200 (P388 [2]) of 0.35 µM and an IC50 (MKN-45) of 56 nM.
For `O=C1c2c(c3c4c(O)cccc4n(C4OC(CO)C(O)C(O)C4O)c3c3[nH]c4ccccc4c23)C(=O)N1NC(CO)CO` (stereo not given), the EC50 (DNA topoisomerase 1) was 490 nM, the IC50 (DLD-1) was over 30000 nM and the IC50 (P388 [1]) was 910 nM. It also gave an EC200 (P388 [2]) of over 10 µM and an IC50 (MKN-45) of 7100 nM.
With `O=C1c2c(c3c4cc(O)cc(O)c4n(C4OC(CO)C(O)C(O)C4O)c3c3[nH]c4c(O)cc(O)cc4c23)C(=O)N1NC(CO)CO` (stereo not given) the EC50 (DNA topoisomerase 1) was 350 nM, the IC50 (DLD-1) was over 30000 nM and the IC50 (P388 [1]) was over 30000 nM. The EC200 (P388 [2]) was 5.5 µM and the IC50 (MKN-45) was over 30000 nM.
With `O=C1c2c(c3c4cc(O)ccc4n(C4OC(CO)C(O)C(O)C4O)c3c3[nH]c4c(O)cccc4c23)C(=O)N1NC(CO)CO` (stereo not given) the EC50 (DNA topoisomerase 1) was 130 nM, the GID75 (Mus musculus) was 2200 mg m**-2 and the LD10 (Mus musculus) was 1800 mg m**-2. It also gave a Ratio [3] of 0.8, an IC50 (DLD-1) of 5100 nM and an IC50 (P388 [1]) of 31 nM. For the same molecule, the EC200 (P388 [2]) was 3 µM and the IC50 (MKN-45) was 300 nM.
`O=C1c2c(c3c4cc(O)ccc4n(C4OC(CO)C(O)C(O)C4O)c3c3[nH]c4ccccc4c23)C(=O)N1NC(CO)CO` (stereo not given) gave an EC50 (DNA topoisomerase 1) of 1900 nM, an IC50 (DLD-1) of over 30000 nM and an IC50 (P388 [1]) of 47 nM. For the same molecule, the EC200 (P388 [2]) was 4.5 µM and the IC50 (MKN-45) was 4200 nM.
`O=C1c2c(c3c4cccc(O)c4n(C4OC(CO)C(O)C(O)C4O)c3c3[nH]c4c(O)cccc4c23)C(=O)N1NC(CO)CO` (stereo not given) showed a GID75 (Mus musculus) of 78 mg m**-2, an LD10 (Mus musculus) of 390 mg m**-2 and a Ratio [3] of 5. It also gave an IC50 (DLD-1) of 520 nM and an EC200 (P388 [2]) of 0.45 µM.
In the case of `O=C1c2c(c3c4ccccc4n(C4OC(CO)C(O)C(O)C4O)c3c3[nH]c4ccc(O)cc4c23)C(=O)N1NC(CO)CO` (stereo not given), the EC50 (DNA topoisomerase 1) is reported as 1100 nM, the IC50 (DLD-1) is reported as 5500 nM and the IC50 (P388 [1]) is reported as 130 nM. For the same molecule, the EC200 (P388 [2]) was 2 µM and the IC50 (MKN-45) was 720 nM.
